# Measured values as given in the supplement of paper PMC10307832.
# Key:
# Assay in all cases: relative viability (nuclei count vs DMSO), 5 days (fraction); higher = more cells survive
# [1] = compound: C1CC1C(=O)NC2=NNC3=C2C=CC(=C3)C4=CC(=CC=C4)C(=O)NC5CC5 [XMD13-2] + CC1(C)CCC(c2ccc(Cl)cc2)=C(CN2CCN(c3ccc(C(=O)NS(=O)(=O)c4ccc(N[C@H](CCN5CCOCC5)CSc5ccccc5)c(S(=O)(=O)C(F)(F)F)c4)cc3)CC2)C1 [Navitoclax] (partner 0.5 µM)
# Method in brief: (§1)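 Lung cancer cell lines, seeded in 1536-well plates, were treated the following day by pin tool with a single drug or with five library-drug doses (not always all listed) in √10 steps on top of a fixed anchor-drug dose. Cells were fixed and nuclei stained in one step after 5 days, and nuclei were counted. Relative viability is the nuclei count for treated wells divided by that for vehicle wells, reported as medians of duplicate plates.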
# [2] = compound: Cc1ccc(C(=O)Nc2cccc(C(F)(F)F)c2)cc1Nc1cncc(C(N)=O)c1 [ALW-II-49-7] + CC(=O)c1c(C)c2cnc(Nc3ccc(N4CCNCC4)cn3)nc2n(C2CCCC2)c1=O [Palbociclib] (partner 0.5 µM)
# Method in brief: as §1
# [3] = compound: Cc1ccc(C(=O)Nc2cccc(C(F)(F)F)c2)cc1Nc1cncc(C(N)=O)c1 [ALW-II-49-7] + O=C(c1cc(Cc2n[nH]c(=O)c3ccccc23)ccc1F)N1CCN(C(=O)C2CC2)CC1 [Olaparib] (partner 8 µM)
# Method in brief: as §1
# [4] = compound: Cc1nc(Nc2ncc(C(=O)Nc3c(C)cccc3Cl)s2)cc(N2CCN(CCO)CC2)n1 [Dasatinib] + CC1(C)CCC(c2ccc(Cl)cc2)=C(CN2CCN(c3ccc(C(=O)NS(=O)(=O)c4ccc(N[C@H](CCN5CCOCC5)CSc5ccccc5)c(S(=O)(=O)C(F)(F)F)c4)cc3)CC2)C1 [Navitoclax] (partner 0.5 µM)
# Method in brief: as §1
cell line,measurement,setting,value
UMC-11,relative viability,[1]; first compound 0.05 µM,0.347
same,relative viability,[1]; first compound 0.1581 µM,0.284
same,relative viability,[1]; first compound 0.5 µM,0.309
same,relative viability,[1]; first compound 1.581 µM,0.344
same,relative viability,[1]; first compound 5 µM,0.265
same,relative viability,[2]; first compound 0.08 µM,0.345
same,relative viability,[2]; first compound 0.253 µM,0.348
same,relative viability,[2]; first compound 0.8 µM,0.33
same,relative viability,[2]; first compound 2.53 µM,0.295
same,relative viability,[2]; first compound 8 µM,0.274
same,relative viability,[3]; first compound 0.08 µM,0.428
same,relative viability,[3]; first compound 0.253 µM,0.428
same,relative viability,[3]; first compound 0.8 µM,0.413
same,relative viability,[3]; first compound 2.53 µM,0.345
same,relative viability,[3]; first compound 8 µM,0.342
same,relative viability,[4]; first compound 0.005 µM,0.308
same,relative viability,[4]; first compound 0.01581 µM,0.247
same,relative viability,[4]; first compound 0.05 µM,0.275
same,relative viability,[4]; first compound 0.1581 µM,0.246
same,relative viability,[4]; first compound 0.5 µM,0.241
